Measured values published in ChEMBL document CHEMBL4396865, “Current advances of triazole alcohols derived from fluconazole: Design, in vitro and in silico studies” (2019).
≈ marks a conversion by molar mass, not a printed value.

Key:
Format in all cases: functional
Candida albicans [1] = assay: Antifungal activity against Candida albicans
Candida parapsilosis = assay: Antifungal activity against Candida parapsilosis
Candida tropicalis = assay: Antifungal activity against Candida tropicalis
Kluyveromyces marxianus = assay: Antifungal activity against Candida kefyr
Cryptococcus neoformans [2] = assay: Antifungal activity against Cryptococcus neoformans
Trichophyton rubrum = assay: Antifungal activity against Trichophyton rubrum
Aspergillus fumigatus = assay: Antifungal activity against Aspergillus fumigatus
Candida albicans [3] = assay: Antifungal activity against Candida albicans after 24 hrs by NCCLS protocol based method
Cryptococcus neoformans [4] = assay: Antifungal activity against Cryptococcus neoformans after 72 hrs by NCCLS protocol based method
[5] = Lodderomyces parapsilosis, read-out: MIC
[6] = Cryptococcus neoformans, read-out: MIC
[7] = Trichophyton rubrum, read-out: MIC

MIC (Candida albicans [1]) [ng/mL] | MIC (Candida parapsilosis) [ng/mL] | MIC (Candida tropicalis) [ng/mL] | MIC (Kluyveromyces marxianus) [ng/mL] | MIC (Cryptococcus neoformans [2]) [ng/mL] | MIC (Trichophyton rubrum) [ng/mL] | MIC (Aspergillus fumigatus) [ng/mL] | SMILES | also measured
0.24 to 250 | 0.24 to 250 | 0.24 to 250 | 0.24 to 250 | 0.24 to 250 | 0.24 to 250 | 0.24 to 250 | C#CCN(Cc1ccc(F)cc1)CC(O)(Cn1cncn1)c1ccc(F)cc1F (stereo unspecified) | 
0.24 to 250 | 0.24 to 250 | 0.24 to 250 | 0.24 to 250 | 0.24 to 250 | 0.24 to 250 | 0.24 to 250 | C#CCN(Cc1ccc(OC)cc1)CC(O)(Cn1cncn1)c1ccc(F)cc1F (stereo unspecified) | 
0.24 to 250 | 0.24 to 250 | 0.24 to 250 | 0.24 to 250 | 0.24 to 250 | 0.24 to 250 | 0.24 to 250 | C#CCN(Cc1ccc(C)cc1)CC(O)(Cn1cncn1)c1ccc(F)cc1F (stereo unspecified) | 
0.24 to 250 | 0.24 to 250 | 0.24 to 250 | 0.24 to 250 | 0.24 to 250 | 0.24 to 250 | 0.24 to 250 | C#CCN(Cc1cccc(Cl)c1)CC(O)(Cn1cncn1)c1ccc(F)cc1F (stereo unspecified) | 
0.24 to 250 | 0.24 to 250 | 0.24 to 250 | 0.24 to 250 | 0.24 to 250 | 0.24 to 250 | 0.24 to 250 | C#CCN(Cc1cccc(C)c1)CC(O)(Cn1cncn1)c1ccc(F)cc1F (stereo unspecified) | 
0.24 to 250 | 0.24 to 250 | 0.24 to 250 | 0.24 to 250 | 0.24 to 250 | 0.24 to 250 | 0.24 to 250 | C#CCN(Cc1ccccc1F)CC(O)(Cn1cncn1)c1ccc(F)cc1F (stereo unspecified) | 
0.24 to 250 | 0.24 to 250 | 0.24 to 250 | 0.24 to 250 | 0.24 to 250 | 0.24 to 250 | 0.24 to 250 | C#CCN(Cc1ccc(Br)cc1)CC(O)(Cn1cncn1)c1ccc(F)cc1F (stereo unspecified) | 
0.24 to 250 | 0.24 to 250 | 0.24 to 250 | 0.24 to 250 | 0.24 to 250 | 0.24 to 250 | 0.24 to 250 | C#CCN(Cc1ccccc1C)CC(O)(Cn1cncn1)c1ccc(F)cc1F (stereo unspecified) | 
0.24 to 250 | 0.24 to 250 | 0.24 to 250 | 0.24 to 250 | 0.24 to 250 | 0.24 to 250 | 0.24 to 250 | C#CCN(Cc1ccccc1Br)CC(O)(Cn1cncn1)c1ccc(F)cc1F (stereo unspecified) | 

Further lines, the compound ahead of its results:

SMILES | MIC (Candida albicans [1]) [ng/mL] | MIC (Candida parapsilosis) [ng/mL] | MIC (Candida tropicalis) [ng/mL] | MIC (Kluyveromyces marxianus) [ng/mL] | MIC (Cryptococcus neoformans [2]) [ng/mL] | MIC (Trichophyton rubrum) [ng/mL] | MIC (Aspergillus fumigatus) [ng/mL] | also measured
C#CCN(Cc1cccc(F)c1)CC(O)(Cn1cncn1)c1ccc(F)cc1F (stereo unspecified) | 0.24 to 250 | 0.24 to 250 | 0.24 to 250 | 0.24 to 250 | 0.24 to 250 | 0.24 to 250 | 0.24 to 250 | 
C#CCN(Cc1ccccc1C#N)CC(O)(Cn1cncn1)c1ccc(F)cc1F (stereo unspecified) | 0.24 to 250 | 0.24 to 250 | 0.24 to 250 | 0.24 to 250 | 0.24 to 250 | 0.24 to 250 | 0.24 to 250 | 
C#CCN(Cc1ccc(C#N)cc1)CC(O)(Cn1cncn1)c1ccc(F)cc1F (stereo unspecified) | 0.24 to 250 | 0.24 to 250 | 0.24 to 250 | 0.24 to 250 | 0.24 to 250 | 0.24 to 250 | 0.24 to 250 | 
C#CCN(Cc1ccccc1)CC(O)(Cn1cncn1)c1ccc(F)cc1F (stereo unspecified) | 0.24 to 250 | 0.24 to 250 | 0.24 to 250 | 0.24 to 250 | 0.24 to 250 | 0.24 to 250 | 0.24 to 250 | 
C#CCN(Cc1ccccc1Cl)CC(O)(Cn1cncn1)c1ccc(F)cc1F (stereo unspecified) | 0.24 to 250 | 0.24 to 250 | 0.24 to 250 | 0.24 to 250 | 0.24 to 250 | 0.24 to 250 | 0.24 to 250 | 
O=C1S/C(=C\c2ccc(Cl)cc2Cl)C(=O)N1CC(O)(Cn1cncn1)c1ccc(F)cc1F (stereo unspecified) |  |  |  |  |  |  |  | MIC80 (Candida albicans [3]): 0.03 to 0.15 µM (≈ 0.0153 to 0.0767 µg/mL); MIC80 (Cryptococcus neoformans [4]): 0.12 µM (≈ 0.0614 µg/mL)
CCCc1ccc(-c2nnc(SCc3cn(CC(O)(Cn4cncn4)c4ccc(F)cc4F)nn3)o2)cc1 (stereo unspecified) |  |  |  |  |  |  |  | MIC80 (Candida albicans [1]; Candida albicans): 500 ng/mL (≈ 928 nM)
C#CCN(Cc1ccc(Cl)cc1)CC(O)(Cn1cncn1)c1ccc(F)cc1F (stereo unspecified) | 0.24 to 250 | 0.24 to 250 | 0.24 to 250 | 0.24 to 250 | 0.24 to 250 | 0.24 to 250 | 0.24 to 250 | 
C#CCN(Cc1cccc([N+](=O)[O-])c1)CC(O)(Cn1cncn1)c1ccc(F)cc1F (stereo unspecified) | 0.24 to 250 | 0.24 to 250 | 0.24 to 250 | 0.24 to 250 | 0.24 to 250 | 0.24 to 250 | 0.24 to 250 | 
O=C1S/C(=C\c2ccoc2)C(=O)N1CC(O)(Cn1cncn1)c1ccc(F)cc1F (stereo unspecified) |  |  |  |  |  |  |  | MIC80 (Candida albicans [3]): 0.03 to 0.15 µM (≈ 0.013 to 0.0649 µg/mL); MIC80 (Cryptococcus neoformans [4]): 0.12 µM (≈ 0.0519 µg/mL)
Cc1ccccc1-c1nnc(SCc2cn(CC(O)(Cn3cncn3)c3ccc(F)cc3F)nn2)o1 (stereo unspecified) |  |  |  |  |  |  |  | MIC80 (Candida albicans [1]; Candida albicans): 500 ng/mL (≈ 979 nM)
OC(Cc1cn(Cn2ncc(CC3CCCCC3)n2)nn1)(Cn1cncn1)c1ccc(F)cc1F (stereo unspecified) |  |  |  |  |  |  |  | MIC (Candida parapsilosis; [5]): 3 ng/mL (≈ 6.2 nM); MIC (Cryptococcus neoformans [2]; [6]): 0.15 ng/mL (≈ 0.31 nM)
C#CCN(Cc1cccc(Br)c1)CC(O)(Cn1cncn1)c1ccc(F)cc1F (stereo unspecified) | 0.24 to 250 | 0.24 to 250 | 0.24 to 250 | 0.24 to 250 | 0.24 to 250 | 0.24 to 250 | 0.24 to 250 | 
Cc1cccc(-c2cn(CC(O)(Cn3cncn3)c3ccc(F)cc3F)nn2)c1 (stereo unspecified) |  |  |  |  |  |  |  | MIC (Trichophyton rubrum; [7]): 250 ng/mL (≈ 631 nM)
C#CCN(Cc1ccc(Cl)cc1Cl)CC(O)(Cn1cncn1)c1ccc(F)cc1F (stereo unspecified) | 0.24 to 250 | 0.24 to 250 | 0.24 to 250 | 0.24 to 250 | 0.24 to 250 | 0.24 to 250 | 0.24 to 250 | 
CCN(Cc1cn(Cc2ccc(Cl)cc2)nn1)CC(O)(Cn1cncn1)c1ccc(F)cc1F (stereo unspecified) |  |  |  |  |  |  |  | MIC (Candida albicans [1]; Candida albicans, read-out: MIC): 3.9 to 62.5 ng/mL (≈ 7.99 to 128 nM); MIC (Candida parapsilosis; [5]): 3.9 to 62.5 ng/mL (≈ 7.99 to 128 nM); MIC (Candida tropicalis; Candida tropicalis, read-out: MIC): 3.9 to 62.5 ng/mL (≈ 7.99 to 128 nM); MIC (Kluyveromyces marxianus; Kluyveromyces marxianus, read-out: MIC): 3.9 to 62.5 ng/mL (≈ 7.99 to 128 nM); MIC (Cryptococcus neoformans [2]; [6]): 3.9 to 62.5 ng/mL (≈ 7.99 to 128 nM); MIC (Trichophyton rubrum; [7]): 3.9 to 62.5 ng/mL (≈ 7.99 to 128 nM)
C#CCN(Cc1ccc([N+](=O)[O-])cc1)CC(O)(Cn1cncn1)c1ccc(F)cc1F (stereo unspecified) | 0.24 to 250 | 0.24 to 250 | 0.24 to 250 | 0.24 to 250 | 0.24 to 250 | 0.24 to 250 | 0.24 to 250 | 
C#CCN(Cc1c(Cl)cccc1Cl)CC(O)(Cn1cncn1)c1ccc(F)cc1F (stereo unspecified) | 0.24 to 250 | 0.24 to 250 | 0.24 to 250 | 0.24 to 250 | 0.24 to 250 | 0.24 to 250 | 0.24 to 250 | 
C#CCN(Cc1ccccc1[N+](=O)[O-])CC(O)(Cn1cncn1)c1ccc(F)cc1F (stereo unspecified) | 0.24 to 250 | 0.24 to 250 | 0.24 to 250 | 0.24 to 250 | 0.24 to 250 | 0.24 to 250 | 0.24 to 250 | 
O=C1S/C(=C\c2ccco2)C(=O)N1CC(O)(Cn1cncn1)c1ccc(F)cc1F (stereo unspecified) |  |  |  |  |  |  |  | MIC80 (Candida albicans [3]): 0.03 to 0.15 µM (≈ 0.013 to 0.0649 µg/mL); MIC80 (Cryptococcus neoformans [4]): 0.12 µM (≈ 0.0519 µg/mL)
CCN(Cc1cn(Cc2ccc(Cl)cc2Cl)nn1)CC(O)(Cn1cncn1)c1ccc(F)cc1F (stereo unspecified) |  |  |  |  |  |  |  | MIC (Trichophyton rubrum; [7]): 3.9 ng/mL (≈ 7.47 nM)
CN(CCOc1ccc(CC2SC(=O)N(CC(O)(Cn3cncn3)c3ccc(F)cc3F)C2=O)cc1)c1ccccn1 (stereo unspecified) |  |  |  |  |  |  |  | MIC80 (Candida albicans [3]): 6.72 µM (≈ 4 µg/mL); MIC80 (Cryptococcus neoformans [4]): 13.4 µM (≈ 8 µg/mL)
C#CCN(Cc1cccc(C#N)c1)CC(O)(Cn1cncn1)c1ccc(F)cc1F (stereo unspecified) | 0.24 to 250 | 0.24 to 250 | 0.24 to 250 | 0.24 to 250 | 0.24 to 250 | 0.24 to 250 | 0.24 to 250 | 
CCCCCCc1cnn(Cn2cc(CC(O)(Cn3cncn3)c3ccc(F)cc3F)nn2)n1 (stereo unspecified) |  |  |  |  |  |  |  | MIC (Candida parapsilosis; [5]): 3 ng/mL (≈ 6.36 nM); MIC (Cryptococcus neoformans [2]; [6]): 0.15 ng/mL (≈ 0.318 nM)
